Our source for the EC50 and IC50 values is US8415351B2 (priority 2007, dated 2013).

The subject of assay [1] is genotype 1a-H77 subgenomic replicon cell line. Nature of the assay: microbe, parasite or virus in culture. It is filed as cell-based, HCV. To be noted: read-out: EC50 1a.
Assay [2] addresses T1, HCV polymerase 1B (Δ21 NS5B, BK) (Hepatitis C virus genotype 1b, UniProt P26663).
T1 construct: 20 to 50 nM Δ21 NS5B
Nature of the assay: biochemical. In short, it runs like this:
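Δ21 NS5B (genotype 1b, BK […]) preincubated 15 min RT with inhibitor, 2 mM MnCl2, pH 7.4, 60–125 μM GTP; started with 20 μM CTP/ATP, 1 μM 3H-UTP, 5 nM template RNA, run 2–4 h RT. Spermine-precipitated RNA filter-captured, scintillation counted; IC50 from tight-binding (Morrison) fit.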

Assay [3] relates to genotype 1b-Con1 subgenomic replicon cell line. Nature of the assay: microbe, parasite or virus in culture. The format is cell-based, HCV. To be noted: read-out: EC50 1b.
Assay [4] has as its target T2, HCV polymerase 1A (Δ21 NS5B, H77) (Hepatitis C virus genotype 1a, UniProt P27958).
T2 construct: 20 to 50 nM Δ21 NS5B
The assay is described as follows: biochemical. In short, it runs like this: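 Incorporation of 1 μM ^3H-UTP, with 20 μM each of CTP and ATP on 5 nM template RNA, ran 2–4 h at room temperature. Spermine-precipitated product was filtered and scintillation-counted. IC50 came from tight-binding non-linear regression of cpm against inhibitor concentration.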

Read-outs that look alike come from different tables or passages of the source.

T2 sequence (P27958 2421-2990, stated change not applied): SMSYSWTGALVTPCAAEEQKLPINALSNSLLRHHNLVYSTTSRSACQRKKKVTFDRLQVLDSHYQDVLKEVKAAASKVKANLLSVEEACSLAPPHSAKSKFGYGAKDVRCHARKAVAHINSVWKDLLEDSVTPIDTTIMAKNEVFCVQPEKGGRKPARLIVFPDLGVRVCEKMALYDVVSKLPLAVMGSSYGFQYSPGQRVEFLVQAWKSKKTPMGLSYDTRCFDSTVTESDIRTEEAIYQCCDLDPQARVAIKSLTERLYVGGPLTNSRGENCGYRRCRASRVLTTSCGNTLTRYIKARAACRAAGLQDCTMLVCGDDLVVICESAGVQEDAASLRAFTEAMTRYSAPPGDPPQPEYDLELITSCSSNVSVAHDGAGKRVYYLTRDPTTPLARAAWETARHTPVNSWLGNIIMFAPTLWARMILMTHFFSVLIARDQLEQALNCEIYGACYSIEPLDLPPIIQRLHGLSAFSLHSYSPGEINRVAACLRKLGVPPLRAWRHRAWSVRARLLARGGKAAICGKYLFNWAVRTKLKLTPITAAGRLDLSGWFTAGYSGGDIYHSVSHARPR
T1 sequence (P26663 2420-2989, stated change not applied): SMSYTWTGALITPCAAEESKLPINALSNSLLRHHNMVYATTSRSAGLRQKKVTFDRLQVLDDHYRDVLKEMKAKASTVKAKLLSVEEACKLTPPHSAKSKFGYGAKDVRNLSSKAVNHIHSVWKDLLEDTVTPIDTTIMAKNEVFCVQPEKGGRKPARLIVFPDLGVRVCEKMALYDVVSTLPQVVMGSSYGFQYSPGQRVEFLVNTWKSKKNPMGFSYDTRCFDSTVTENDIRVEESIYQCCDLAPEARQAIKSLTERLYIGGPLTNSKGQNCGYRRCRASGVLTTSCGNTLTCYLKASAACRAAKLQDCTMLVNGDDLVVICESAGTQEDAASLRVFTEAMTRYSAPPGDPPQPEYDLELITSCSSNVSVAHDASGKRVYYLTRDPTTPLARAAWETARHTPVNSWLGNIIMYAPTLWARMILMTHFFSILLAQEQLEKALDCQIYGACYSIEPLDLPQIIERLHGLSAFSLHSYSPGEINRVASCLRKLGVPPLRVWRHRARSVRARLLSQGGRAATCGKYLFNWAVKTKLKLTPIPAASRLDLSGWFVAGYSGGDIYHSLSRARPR

The EC50 is the concentration at which the effect is half-maximal. What is called IC50 is the midpoint of a concentration-inhibition curve. Consider `COc1c(-c2ccc3cc(CNS(C)(=O)=O)sc3c2)cc(-n2ccc(=O)[nH]c2=O)cc1C(C)(C)C` [IB-L0-2.40, N-((6-(3-tert-butyl-5-(2,4-dioxo-3,4-dihydropyrimidin-1(2H)-yl)-2-methoxyphenyl)benzo[b]thiophen-2-yl)methyl)methanesulfonamide], for which the EC50 in assay [1] (Hepatitis C virus) is above 1000 nM; in assay [3] (Hepatitis C virus) it was 100 to 1000 nM. Besides, the half-maximal inhibitory concentration (IC50) in assay [2] and in assay [4] (IC50 1a) was 100 to 1000 nM each time.
Consider `COc1c(-c2ccc(/C(C)=N/NS(C)(=O)=O)cc2)cc(N2CCC(=O)NC2=O)cc1C(C)(C)C` [IA-L0-1.2, (E)-N′-(1-(3′-tert-butyl-5′-(2,4-dioxotetrahydropyrimidin-1(2H)-yl)-2′-methoxybiphenyl-4-yl)ethylidene)methanesulfonohydrazide], for which the EC50 in assay [1] (Hepatitis C virus) is 100 to 1000 nM; in assay [3] (Hepatitis C virus), 10 to 100 nM. Also, the IC50 in assay [2] and in assay [4] (IC50 1a) was 10 to 100 nM throughout.
Consider `COc1c(-c2ccsc2)cc(-n2ccc(=O)[nH]c2=O)cc1-c1ccc2c(c1)CC=C2CNS(C)(=O)=O` [IB-L0-2.62, N-((6-(5-(2,4-dioxo-3,4-dihydropyrimidin-1(2H)-yl)-2-methoxy-3-(thiophen-3-yl)phenyl)-1H-inden-3-yl)methyl)methanesulfonamide], for which the concentration for a half-maximal effect (EC50) was in the range of 100 to 1000 nM in assay [1] (Hepatitis C virus) and 10 to 100 nM in assay [3] (Hepatitis C virus). In addition, the IC50 in assay [2] and in assay [4] (IC50 1a) was 10 to 100 nM each time.
In the case of `COc1c(C(=O)Nc2ccc(NS(C)(=O)=O)cc2)cc(-n2ccc(=O)[nH]c2=O)cc1C(C)(C)C` [IB-L3-1.1, 3-tert-butyl-5-(2,4-dioxo-3,4-dihydropyrimidin-1(2H)-yl)-2-methoxy-N-(4-(methylsulfon amido)phenyl)benzamide], the EC50 in assay [1] (Hepatitis C virus) is 100 to 1000 nM; in assay [3] (Hepatitis C virus) it was 10 to 100 nM. Further, the IC50 in assay [2] and in assay [4] (IC50 1a) was 10 to 100 nM each time.
As to `CC(C)(C)c1cc(C#Cc2ccc(NS(C)(=O)=O)cc2Cl)cc(N2CCC(=O)NC2=O)c1` [IA-L2-1.3, N-(4-((3-tert-butyl-5-(2,4-dioxotetrahydropyrimidin-1(2H)-yl)phenyl)ethynyl)-3-chlorophenyl)methanesulfonamide], the EC50 is 10 to 100 nM in assay [1] (Hepatitis C virus) and below 10 nM in assay [3] (Hepatitis C virus). For the same compound, the 50% inhibitory concentration (IC50) in assay [2] and in assay [4] (IC50 1a) was below 10 nM in each case.
As for `COc1cc(NS(C)(=O)=O)ccc1/C=C/c1cc(N2CCC(=O)NC2=O)cc(C(C)(C)C)c1OC` [IA-L1-1.27, N-(4-{(E)-2-[3-tert-Butyl-5-(dioxo-tetrahydro-pyrimidin-1-yl)-2-methoxy-phenyl]-vinyl}-3-methoxy-phenyl)-methanesulfonamide], the EC50 in assay [1] (genotype 1a-H77 replicon, luciferase reporter) is 10 to 100 nM; in assay [3] (genotype 1b-Con1 replicon, luciferase reporter), below 10 nM. Besides, the half-maximal inhibitory concentration (IC50) in assay [2] (HCV polymerase 1b, read-out: IC50 1b) was 10 to 100 nM; in assay [4] (read-out: IC50 1a) it was below 10 nM.
As for `COc1c(-c2ccc(/C=N/NS(C)(=O)=O)c(F)c2)cc(-n2ccc(=O)[nH]c2=O)cc1C(C)(C)C` [IB-L0-1.3, (E)-N′-((3′-tert-butyl-5′-(2,4-dioxo-3,4-dihydropyrimidin-1(2H)-yl)-3-fluoro-2′-methoxybiphenyl-4-yl)methylene)methanesulfonohydrazide], the EC50 is 100 to 1000 nM in assay [1] (Hepatitis C virus) and 10 to 100 nM in assay [3] (Hepatitis C virus). The concentration for half-maximal inhibition (IC50) in assay [2] and in assay [4] (IC50 1a) was 10 to 100 nM each time.
For `COc1c(N(C)C(=O)c2ccc(NS(C)(=O)=O)cc2)cc(N2CCC(=O)NC2=O)cc1C(C)(C)C` [IA-L4-1.7, N-(3-tert-butyl-5-(2,4-dioxotetrahydropyrimidin-1(2H)-yl)-2-methoxyphenyl)-N-methyl-4-(methylsulfonamido)benzamide], the EC50 in assay [1] (Hepatitis C virus) and in assay [3] (Hepatitis C virus) was above 1000 nM throughout. Also, the values for the IC50 in assay [2] and in assay [4] (IC50 1a) were above 1000 nM and 100 to 1000 nM, respectively.
As for `COc1c(-c2ccc3c(c2)CC[C@H]3CNS(C)(=O)=O)cc(-n2ccc(=O)[nH]c2=O)cc1C(C)(C)C` (single isomer, unassigned) [IB-L0-2.15], the concentration giving a half-maximal response (EC50) in assay [1] (Hepatitis C virus) was 100 to 1000 nM; in assay [3] (Hepatitis C virus) it was 10 to 100 nM. Moreover, the half-maximal inhibitory concentration (IC50) in assay [2] was 10 to 100 nM; in assay [4] (IC50 1a) it was below 10 nM.
In the case of `CC(C)(C)c1cc(N2CCC(=O)NC2=O)cc(C(=O)Nc2cc(CNS(C)(=O)=O)cs2)c1O` [IA-L3-1.91, 3-tert-butyl-5-(2,4-dioxotetrahydropyrimidin-1(2H)-yl)-2-hydroxy-N-(4-(methylsulfonamidomethyl)thiophen-2-yl)benzamide], the 50% effective concentration (EC50) in assay [1] (Hepatitis C virus) and in assay [3] (Hepatitis C virus) was 100 to 1000 nM throughout. The IC50 in assay [2] and in assay [4] (IC50 1a) was 10 to 100 nM each time.
With `COc1cc(NS(C)(=O)=O)ccc1C(=O)Nc1cc(-n2ccc(=O)[nH]c2=O)cc(C(C)(C)C)c1OC` [IB-L4-1.1, N-(3-tert-butyl-5-(2,4-dioxo-3,4-dihydropyrimidin-1(2H)-yl)-2-methoxyphenyl)-2-methoxy-4-(methylsulfonamido)benzamide], the EC50 lay in the range of 100 to 1000 nM in assay [1] (Hepatitis C virus) and 10 to 100 nM in assay [3] (Hepatitis C virus). Further, the IC50 in assay [2] is 10 to 100 nM; in assay [4] (IC50 1a), below 10 nM.
Consider `COc1c(C(=O)Nc2ccc(OCC#N)cc2)cc(N2CCC(=O)NC2=O)cc1C(C)(C)C` [IA-L3-1.38, 3-tert-butyl-N-(4-(cyanomethoxy)phenyl)-5-(2,4-dioxotetrahydropyrimidin-1(2H)-yl)-2-methoxybenzamide], for which the concentration for a half-maximal effect (EC50) in assay [1] (Hepatitis C virus) and in assay [3] (Hepatitis C virus) was above 1000 nM throughout. In addition, the values for the IC50 in assay [2] and in assay [4] (IC50 1a) were 100 to 1000 nM and above 1000 nM, respectively.
As for `CC(C)(C)c1cc(C#Cc2ccc(NS(C)(=O)=O)cc2)cc(N2CCC(=O)NC2=O)c1` [IA-L2-1.1, N-(4-((3-tert-butyl-5-(2,4-dioxotetrahydropyrimidin-1(2H)-yl)phenyl)ethynyl)phenyl)-methanesulfonamide], the EC50 in assay [1] (Hepatitis C virus) is 100 to 1000 nM; in assay [3] (Hepatitis C virus), 10 to 100 nM. For the same compound, the IC50 in assay [2] is below 10 nM; in assay [4] (IC50 1a) it was 10 to 100 nM.
For `COc1c(-c2ccc3c(c2)CC=C3CNS(C)(=O)=O)cc(-n2ccc(=O)[nH]c2=O)cc1-c1cccs1` [IB-L0-2.63, N-((6-(5-(2,4-dioxo-3,4-dihydropyrimidin-1(2H)-yl)-2-methoxy-3-(thiophen-2-yl)phenyl)-1H-inden-3-yl)methyl)methanesulfonamide], the EC50 fell in the range of 100 to 1000 nM in assay [1] (Hepatitis C virus) and 10 to 100 nM in assay [3] (Hepatitis C virus). Further, the IC50 in assay [2] and in assay [4] (IC50 1a) was 10 to 100 nM throughout.
Consider `CNS(=O)(=O)Cc1ccc(NC(=O)c2cc(N3CCC(=O)NC3=O)cc(C(C)(C)C)c2O)cc1` [IA-L3-1.16, 3-tert-butyl-5-(2,4-dioxotetrahydropyrimidin-1(2H)-yl)-2-hydroxy-N-(4-(N-methylsulfamoylmethyl)phenyl)benzamide], for which the EC50 in assay [1] (Hepatitis C virus) and in assay [3] (Hepatitis C virus) was above 1000 nM in each case. Besides, the IC50 in assay [2] is 10 to 100 nM; in assay [4] (IC50 1a), above 1000 nM.
In the case of `COc1c(C(=O)Nc2ccc(O)cc2)cc(N2CCC(=O)NC2=O)cc1C(C)(C)C` [IA-L3-1.33, 3-tert-butyl-5-(2,4-dioxotetrahydropyrimidin-1(2H)-yl)-N-(4-hydroxyphenyl)-2-methoxybenzamide], the concentration for a half-maximal effect (EC50) in assay [1] (Hepatitis C virus) and in assay [3] (Hepatitis C virus) was above 1000 nM each time. In addition, the IC50 was 100 to 1000 nM in assay [2] and above 1000 nM in assay [4] (IC50 1a).
On to `CC(C)CS(=O)(=O)Nc1ccc(NC(=O)c2cc(N3CCC(=O)NC3=O)cc(C(C)(C)C)c2O)cc1` [IA-L3-1.7, 3-tert-butyl-5-(2,4-dioxotetrahydropyrimidin-1(2H)-yl)-2-hydroxy-N-(4-(2-methylpropylsulfonamido)phenyl)benzamide], for which the EC50 in assay [1] (Hepatitis C virus) and in assay [3] (Hepatitis C virus) was above 1000 nM throughout. Also, the half-inhibitory concentration (IC50) in assay [2] is 10 to 100 nM; in assay [4] (IC50 1a) it was 100 to 1000 nM.
With `COc1c(C#Cc2cccc(NS(C)(=O)=O)c2)cc(N2CCC(=O)NC2=O)cc1C(C)(C)C` [IA-L2-1.7, N-(3-((3-tert-butyl-5-(2,4-dioxotetrahydropyrimidin-1(2H)-yl)-2-methoxyphenyl)ethynyl)phenyl)methanesulfonamide], the EC50 is above 1000 nM in assay [1] (Hepatitis C virus) and 100 to 1000 nM in assay [3] (Hepatitis C virus). The IC50 in assay [2] and in assay [4] (IC50 1a) was 10 to 100 nM throughout.
Regarding `COc1c(-c2cccc(/C(C)=N/NS(C)(=O)=O)c2)cc(-n2ccc(=O)[nH]c2=O)cc1C(C)(C)C` [IB-L0-1.9, (E)-N′-(1-(3′-tert-butyl-5′-(2,4-dioxo-3,4-dihydropyrimidin-1(2H)-yl)-2′-methoxybiphenyl-3-yl)ethylidene)methanesulfonohydrazide], the EC50 in assay [1] (Hepatitis C virus) and in assay [3] (Hepatitis C virus) was above 1000 nM throughout. Besides, the 50% inhibitory concentration (IC50) in assay [2] and in assay [4] (IC50 1a) was 100 to 1000 nM throughout.
Take `Cc1cc(=O)[nH]c(=O)n1-c1cc(C(=O)Nc2ccc(NS(C)(=O)=O)cc2)c(O)c(C(C)(C)C)c1` [IB-L3-1.4, 3-tert-butyl-2-hydroxy-5-(6-methyl-2,4-dioxo-3,4-dihydropyrimidin-1(2H)-yl)-N-(4-(methylsulfonamido)phenyl)benzamide]: the EC50 in assay [1] (Hepatitis C virus) and in assay [3] (Hepatitis C virus) was above 1000 nM throughout. Also, the concentration for half-maximal inhibition (IC50) lay in the range of 10 to 100 nM in assay [2] and 100 to 1000 nM in assay [4] (IC50 1a).
`COc1c(C#Cc2ccc(NS(C)(=O)=O)c(OC(F)(F)F)c2)cc(N2CCC(=O)NC2=O)cc1C(C)(C)C` [IA-L2-1.17, N-(4-((3-tert-butyl-5-(2,4-dioxotetrahydropyrimidin-1(2H)-yl)-2-methoxyphenyl)ethynyl)-2-(trifluoromethoxy)phenyl)methanesulfonamide]: the EC50 in assay [1] (Hepatitis C virus) lay in the range of 100 to 1000 nM; in assay [3] (Hepatitis C virus) it was 10 to 100 nM. Further, the IC50 in assay [2] and in assay [4] (IC50 1a) was 10 to 100 nM each time.
